# Source: US20210122739A1, “NOVEL SULFONAMIDE CARBOXAMIDE COMPOUNDS” (Inflazome Limited, priority 2017, published 2021)
# Experiments:
# [1] = target: T1, NLRP3 (Homo sapiens, UniProt Q96P20); assay: Human whole blood IL1β release assay; type: cell-based; parameters: Plate out 80 μl of whole blood containing 1 μg/ml of LPS; from tissue; host or cells: human whole blood from healthy donors, LPS-primed, nigericin-stimulated; settings: 1 μg/ml LPS, nigericin 10 μM, IL-1β by AlphaLisa, read-out: HWB IC50
# T1 sequence (Q96P20 whole entry): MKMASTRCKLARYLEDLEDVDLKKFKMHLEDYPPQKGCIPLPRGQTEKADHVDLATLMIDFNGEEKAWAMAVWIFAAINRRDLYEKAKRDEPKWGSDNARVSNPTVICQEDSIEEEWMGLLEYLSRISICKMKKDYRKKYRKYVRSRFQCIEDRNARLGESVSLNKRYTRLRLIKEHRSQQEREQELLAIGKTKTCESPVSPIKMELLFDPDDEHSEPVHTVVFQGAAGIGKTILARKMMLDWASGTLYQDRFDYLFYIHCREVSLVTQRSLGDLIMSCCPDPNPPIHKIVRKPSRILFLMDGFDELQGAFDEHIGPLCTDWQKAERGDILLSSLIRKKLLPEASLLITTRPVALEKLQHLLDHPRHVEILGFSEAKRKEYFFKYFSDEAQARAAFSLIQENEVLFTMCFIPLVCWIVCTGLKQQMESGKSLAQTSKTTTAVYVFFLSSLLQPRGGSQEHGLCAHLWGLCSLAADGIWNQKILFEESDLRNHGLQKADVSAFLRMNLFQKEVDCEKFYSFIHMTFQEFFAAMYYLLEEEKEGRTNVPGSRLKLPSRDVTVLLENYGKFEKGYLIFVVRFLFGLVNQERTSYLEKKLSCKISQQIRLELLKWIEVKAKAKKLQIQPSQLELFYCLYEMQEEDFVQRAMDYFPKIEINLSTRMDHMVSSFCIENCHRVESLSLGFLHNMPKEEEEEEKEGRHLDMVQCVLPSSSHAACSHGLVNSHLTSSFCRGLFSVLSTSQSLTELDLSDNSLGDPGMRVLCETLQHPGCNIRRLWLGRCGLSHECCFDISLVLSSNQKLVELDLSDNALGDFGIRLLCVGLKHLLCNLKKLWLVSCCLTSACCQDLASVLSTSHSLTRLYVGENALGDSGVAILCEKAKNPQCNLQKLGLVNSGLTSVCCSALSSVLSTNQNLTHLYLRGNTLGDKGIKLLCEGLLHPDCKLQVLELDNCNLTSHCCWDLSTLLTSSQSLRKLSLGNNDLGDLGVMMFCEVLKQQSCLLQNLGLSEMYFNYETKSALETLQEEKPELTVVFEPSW
# Experimental: For systemic delivery, the ability to inhibit NLRP3 when the compounds are present within the bloodstream is of great importance. For this reason, the NLRP3 inhibitory activity of a number of compounds in human whole blood was investigated in accordance with the following protocol.
# Human whole blood in Li-heparin tubes was obtained from healthy donors from a volunteer donor panel. • 1. Plate out 80 μl of whole blood containing 1 μg/ml of LPS in 96-well, clear bottom cell culture plate (Corning #3585) • 2. Add 10 μl compound (8 points half-log dilution with 10 μM top dose) or vehicle (DMSO 0.1% FAC) to the appropriate wells • 3. Incubate for 3 hrs at 37° C., 5% CO2 • 4. Add 10 μl Nigericin (Sigma #N7143) (10 μM FAC) to all wells • 5. Incubate for 1 hr at 37° C., 5% CO2 • 6. At the end of the incubation period, spin plates at 300×g for 5 mins to pellet cells and remove 20 μl of supernatant and add to 96-well v-bottom plates for IL-1β analysis (note: these plates containing the supernatants can be stored at −80° C. to be analysed at a later date) • 7. IL-1β was measured according to the manufacturer protocol (Perkin Elmer-AlphaLisa IL-1 Kit AL220F-5000) • 8. IC50 data is fitted to anon-linear regression equation (log inhibitor vs response-variable slope 4-parameters)
# [2] = target: T1, NLRP3; assay: THP-1 cells pyroptosis assay; type: cell-based; parameters: Seed THP-1 cells (25,000 cells/well) containing 1.0 μg/ml LPS; host or cells: THP-1 cells, LPS-primed, nigericin-stimulated; settings: 1.0 μg/ml LPS, nigericin 5 μM, resazurin readout
# Source text: It is well established that the activation of NLRP3 leads to cell pyroptosis and this feature plays an important part in the manifestation of clinical disease (Yan-gang Liu et al., Cell Death & Disease, 2017, 8(2), e2579; Alexander Wree et al., Hepatology, 2014, 59(3), 898-910; Alex Baldwin et al., Journal of Medicinal Chemistry, 2016, 59(5), 1691-1710; Ema Ozaki et al., Journal of Inflammation Research, 2015, 8, 15-27; Zhen Xie & Gang Zhao, Neuroimmunology Neuroinflammation, 2014, 1(2), 60-65; Mattia Cocco et al., Journal of Medicinal Chemistry, 2014, 57(24), 10366-10382; T. Satoh et al., Cell Death & Disease, 2013, 4, e644). Therefore, it is anticipated that inhibitors of NLRP3 will block pyroptosis, as well as the release of pro-inflammatory cytokines (e.g. IL-1β) from the cell.
# THP-1 cells (ATCC #TIB-202) were grown in RPMI containing L-glutamine (Gibco #11835) supplemented with 1 mM sodium pyruvate (Sigma #S8636) and penicillin (100 units/ml)/streptomycin (0.1 mg/ml) (Sigma #P4333) in 10% Fetal Bovine Serum (FBS) (Sigma #F0804). The cells were routinely passaged and grown to confluency (˜10^6 cells/ml). On the day of the experiment, THP-1 cells were harvested and resuspended into RPMI medium (without FBS). The cells were then counted and viability (>90%) checked by Trypan blue (Sigma #T8154). Appropriate dilutions were made to give a concentration of 625,000 cells/ml. To this diluted cell solution was added LPS (Sigma #L4524) to give a 1 μg/ml Final Assay Concentration (FAC). 40 μl of the final preparation was aliquoted into each well of a 96-well plate. The plate thus prepared was used for compound screening.
# The following method step-by-step assay was followed for compound screening. • 1. Seed THP-1 cells (25,000 cells/well) containing 1.0 μg/ml LPS in 40 μl of RPMI medium (without FBS) in 96-well, black walled, clear bottom cell culture plates coated with poly-D-lysine (VWR #734-0317) • 2. Add […] compound (8 points half-log dilution, with 10 μM top dose) or vehicle (DMSO 0.1% FAC) to the appropriate wells • 3. Incubate for 3 hrs at 37° C. in 5% CO2 • 4. Add 5 μl nigericin (Sigma #N7143) (FAC 5 μM) to all wells • 5. Incubate for 1 hr at 37° C. and 5% CO2 • 6. At the end of the incubation period, spin plates at 300×g for 3 mins and remove supernatant • 7. Then add 50 μl of resazurin (Sigma #R7017) (FAC 100 μM resazurin in RPMI medium without FBS) and incubate plates for a further 1-2 hrs at 37° C. and 5% CO2 • 8. Plates were read in an Envision reader at Ex 560 nm and Em 590 nm • 9. IC50 data is fitted to a non-linear regression equation (log inhibitor vs response-variable slope 4-parameters)
IC50 [1] [nM],IC50 [2] [nM],SMILES
1600 to 3200,40 to 160,"Cn1nc(S(=O)(=O)NC(=O)Nc2c3c(cc4c2CCC4)CCC3)cc1C(=O)N1CCC1 [Example 54, 5-(Azetidine-1-carbonyl)-N-((1,2,3,5,6,7-hexahydro-s-indacen-4-yl)carbamoyl)-1-methyl-1H-pyrazole-3-sulfonamide]"
800 to 1600,40 to 160,"CCN(CC)C(=O)c1cc(S(=O)(=O)NC(=O)Nc2c3c(cc4c2CCC4)CCC3)nn1C [Example 65, N,N-Diethyl-3-(N-((1,2,3,5,6,7-hexahydro-s-indacen-4-yl)carbamoyl)sulfamoyl)-1-methyl-1H-pyrazole-5-carboxamide]"
< 400,160 to 640,"CC(C)c1cccc(C(C)C)c1NC(=O)NS(=O)(=O)c1cc(C(=O)N2CCC2)n(C)n1 [Example 51, 5-(Azetidine-1-carbonyl)-N-((2,6-diisopropylphenyl)carbamoyl)-1-methyl-1H-pyrazole-3-sulfonamide]"
< 400,40 to 160,"CN(CCO)C(=O)c1cc(S(=O)(=O)NC(=O)Nc2c3c(cc4c2CCC4)CCC3)nn1C [Example 78, 3-(N-((1,2,3,5,6,7-Hexahydro-s-indacen-4-yl)carbamoyl)sulfamoyl)-N-(2-hydroxyethyl)-N,1-dimethyl-1H-pyrazole-5-carboxamide]"
1600 to 3200,640 to 2560,"CCN(C)C(=O)c1cc(S(=O)(=O)NC(=O)Nc2c(C(C)C)cccc2C(C)C)nn1C [Example 56, 3-(N-((2,6-Diisopropylphenyl)carbamoyl)sulfamoyl)-N-ethyl-N,1-dimethyl-1H-pyrazole-5-carboxamide]"
400 to 800,40 to 160,"COCCN(CCOC)C(=O)c1cc(S(=O)(=O)NC(=O)Nc2c3c(cc4c2CCC4)CCC3)nn1C [Example 26, 3-(N-((1,2,3,5,6,7-Hexahydro-s-indacen-4-yl)carbamoyl)sulfamoyl)-N,N-bis(2-methoxyethyl)-1-methyl-1H-pyrazole-5-carboxamide]"
800 to 1600,160 to 640,"CCN(CCO)C(=O)c1cc(S(=O)(=O)NC(=O)Nc2c3c(cc4c2CCC4)CCC3)nn1C [Example 20, N-Ethyl-3-(N-((1,2,3,5,6,7-hexahydro-s-indacen-4-yl)carbamoyl)sulfamoyl)-N-(2-hydroxyethyl)-1-methyl-1H-pyrazole-5-carboxamide]"
1600 to 3200,160 to 640,"CC(C)Oc1cc(-c2cc(F)cc(C(C)C)c2NC(=O)NS(=O)(=O)c2cc(C(=O)N(C)C)n(C)n2)ccn1 [Example 81, 3-(N-((4-Fluoro-2-(2-isopropoxypyridin-4-yl)-6-isopropyl-phenyl)carbamoyl)sulfamoyl)-N,N,1-trimethyl-1H-pyrazole-5-carboxamide]"
800 to 1600,40 to 160,"CN(C)C(=O)C(C)(C)n1ccc(S(=O)(=O)NC(=O)Nc2c3c(cc4c2CCC4)CCC3)n1 [Example 83, 2-(3-(N-((1,2,3,5,6,7-Hexahydro-s-indacen-4-yl)carbamoyl)sulfamoyl)-1H-pyrazol-1-yl)-N,N,2-trimethylpropanamide]"
400 to 800,160 to 640,"CCN(C)C(=O)c1cc(S(=O)(=O)NC(=O)Nc2c(C(C)C)cc(F)cc2C(C)C)nn1C [Example 49, N-Ethyl-3-(N-((4-fluoro-2,6-diisopropylphenyl)carbamoyl)sulfamoyl)-N,1-dimethyl-1H-pyrazole-5-carboxamide]"
< 400,< 40,COc1cc(-c2ccc3c(c2NC(=O)NS(=O)(=O)c2ccn(C(C)(C)C(=O)N(C)C)n2)CCC3)ccn1 [Example 84]
800 to 1600,40 to 160,"CC(C)c1cccc(C(C)C)c1NC(=O)NS(=O)(=O)c1cc(C(=O)N(C)C2CC2)n(C)n1 [Example 43, N-Cyclopropyl-3-(N-((2,6-diisopropylphenyl)carbamoyl)sulfamoyl)-N,1-dimethyl-1H-pyrazole-5-carboxamide]"
400 to 800,40 to 160,"CC(C)c1cc(F)cc(C(C)C)c1NC(=O)NS(=O)(=O)c1cc(C(=O)N(C)C(C)C)n(C)n1 [Example 47, 3-(N-((4-Fluoro-2,6-diisopropylphenyl)carbamoyl)sulfamoyl)-N-isopropyl-N,1-dimethyl-1H-pyrazole-5-carboxamide]"
1600 to 3200,40 to 160,"CC(C)N(C)C(=O)c1cc(S(=O)(=O)NC(=O)Nc2c3c(cc4c2CCC4)CCC3)nn1C [Example 64, 3-(N-((1,2,3,5,6,7-Hexahydro-s-indacen-4-yl)carbamoyl)sulfamoyl)-N-isopropyl-N,1-dimethyl-1H-pyrazole-5-carboxamide]"
1600 to 3200,160 to 640,"CNC(=O)c1cc(S(=O)(=O)NC(=O)Nc2c(C(C)C)cc(Cl)cc2C(C)C)nn1C [Example 32, 3-(N-((4-Chloro-2,6-diisopropylphenyl)carbamoyl)sulfamoyl)-N,1-dimethyl-1H-pyrazole-5-carboxamide]"
< 400,160 to 640,"COCCN(CCOC)C(=O)c1cc(S(=O)(=O)NC(=O)Nc2c(-c3ccnc(OC)c3)ccc3c2CCC3)nn1C [Example 80, N,N-Bis(2-methoxyethyl)-3-(N-((5-(2-methoxypyridin-4-yl)-2,3-dihydro-1H-inden-4-yl)carbamoyl)sulfamoyl)-1-methyl-1H-pyrazole-5-carboxamide]"
400 to 800,160 to 640,"CC(C)c1cccc(C(C)C)c1NC(=O)NS(=O)(=O)c1cc(C(=O)N(C)C(C)C)n(C)n1 [Example 58, 3-(N-((2,6-Diisopropylphenyl)carbamoyl)sulfamoyl)-N-isopropyl-N,1-dimethyl-1H-pyrazole-5-carboxamide]"
1600 to 3200,160 to 640,"CN(CCCO)C(=O)c1cc(S(=O)(=O)NC(=O)Nc2c3c(cc4c2CCC4)CCC3)nn1C [Example 18, 3-(N-((1,2,3,5,6,7-Hexahydro-s-indacen-4-yl)carbamoyl)sulfamoyl)-N-(3-hydroxypropyl)-N,1-dimethyl-1H-pyrazole-5-carboxamide]"
3200 to 10000,2560 to 10000,"COCCN(CCOC)C(=O)c1cc(S(=O)(=O)NC(=O)Nc2c(-c3ccnc(OC(C)C)c3)cc(F)cc2C(C)C)nn1C [Example 79, 3-(N-((4-Fluoro-2-(2-isopropoxypyridin-4-yl)-6-isopropyl-phenyl)carbamoyl)sulfamoyl)-N,N-bis(2-methoxyethyl)-1-methyl-1H-pyrazole-5-carboxamide]"
< 400,160 to 640,"CC(C)c1cc(F)cc(-c2cncnc2)c1NC(=O)NS(=O)(=O)c1cc(C(=O)N(C)C)n(C)n1 [Example 42, 3-(N-((4-Fluoro-2-isopropyl-6-(pyrimidin-5-yl)phenyl)carbamoyl)sulfamoyl)-N,N,1-trimethyl-1H-pyrazole-5-carboxamide]"
